Data taken from PubChem BioAssay (NCI).
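In this assay, cells in 96-well plates receive the compound at five concentrations for 48 hours. Endpoints are linearly interpolated between the surrounding concentrations. At the GI50, growth is halved. At the TGI there is no net growth.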

What was measured:
Experiment in all cases: DTP human tumour cell line panel, 48 h
[1] = system: SK-MEL-28 melanoma
[2] = system: LOX IMVI melanoma
[3] = system: A498 renal
[4] = system: NCI/ADR-RES ovarian
[5] = system: MDA-MB-435
[6] = system: SW-620 colon
[7] = system: HCT-15 colon
[8] = system: SK-MEL-2 melanoma
[9] = system: HCT-116 colon
[10] = system: K-562 leukemia
[11] = system: HOP-92 NSCLC
[12] = system: M14 melanoma
[13] = system: UO-31 renal
[14] = system: T-47D breast
[15] = system: EKVX NSCLC
[16] = system: OVCAR-5 ovarian
[17] = system: CAKI-1 renal
[18] = system: MOLT-4 leukemia
[19] = system: NCI-H23 lung
[20] = system: OVCAR-3 ovarian
[21] = system: HT29 colon
[22] = system: SF-539 CNS
[23] = system: UACC-257 melanoma
[24] = system: HL-60(TB) leukemia
[25] = system: SNB-19 CNS
[26] = system: UACC-62 melanoma
[27] = system: A549 NSCLC
[28] = system: MDA-MB-231 breast
[29] = system: SK-OV-3 ovarian
[30] = system: CCRF-CEM leukemia
[31] = system: NCI-H226 lung
[32] = system: HOP-62 NSCLC
[33] = system: NCI-H522 lung
[34] = system: DU-145 prostate
[35] = system: COLO 205 colon
[36] = system: SN12C renal
[37] = system: KM12 colon
[38] = system: OVCAR-4 ovarian
[39] = system: 786-0 renal
[40] = system: HS 578T breast
[41] = system: PC-3 prostate
[42] = system: NCI-H460 lung
[43] = system: HCC-2998 colon
[44] = system: SF-268 CNS
[45] = system: RXF 393 renal
[46] = system: TK-10 renal
[47] = system: SF-295 CNS
[48] = system: ACHN renal
[49] = system: OVCAR-8 ovarian
[50] = system: SNB-75 CNS
[51] = system: SK-MEL-5 melanoma
[52] = system: MALME-3M melanoma
[53] = system: IGROV1 ovarian
[54] = system: BT-549 breast
[55] = system: MCF7 breast

## C=C(C)[C@@H]1CC[C@]2(C)[C@H](CC=C3[C@@H]4[C@H](C)[C@@H](C)CC[C@]4(CO)CC[C@]32C)[C@@]1(C)CCCN
[1]
  GI50: 952 nM
  TGI: 1670 nM
[2]
  GI50: 859 nM
  TGI: 1570 nM
[3]
  GI50: 3830 nM
  TGI: 11200 nM
[4]
  GI50: 986 nM
  TGI: 2170 nM
[5]
  GI50: 953 nM
  TGI: 1810 nM
[6]
  GI50: 1010 nM
  TGI: 2110 nM
[7]
  GI50: 839 nM
  TGI: 1760 nM
[8]
  GI50: 1730 nM
  TGI: 5040 nM
[9]
  GI50: 807 nM
  TGI: 1540 nM
[10]
  GI50: 1220 nM
  TGI: 3630 nM
[11]
  GI50: 1040 nM
  TGI: 3460 nM
[12]
  GI50: 846 nM
  TGI: 1760 nM
[13]
  GI50: 823 nM
  TGI: 2240 nM
[14]
  GI50: 1510 nM
  TGI: 5150 nM
[15]
  GI50: 1080 nM
  TGI: 2940 nM
[16]
  GI50: 1760 nM
  TGI: 6150 nM
[17]
  GI50: 1690 nM
  TGI: 5580 nM
[18]
  GI50: 1350 nM
  TGI: 4070 nM
[19]
  GI50: 1340 nM
  TGI: 4000 nM
[20]
  GI50: 934 nM
  TGI: 1790 nM
[21]
  GI50: 990 nM
  TGI: 2040 nM
[22]
  GI50: 945 nM
  TGI: 1730 nM
[23]
  GI50: 1040 nM
  TGI: 2210 nM
[24]
  GI50: 1030 nM
  TGI: 2270 nM
[25]
  GI50: 2110 nM
  TGI: 8110 nM
[26]
  GI50: 5820 nM
  TGI: 12600 nM
[27]
  GI50: 1590 nM
  TGI: 5110 nM
[28]
  GI50: 957 nM
  TGI: 1710 nM
[29]
  GI50: 4420 nM
  TGI: 12000 nM
[30]
  GI50: 1310 nM
  TGI: 5260 nM
[31]
  GI50: 6720 nM
  TGI: 18300 nM
[32]
  GI50: 1080 nM
  TGI: 2360 nM
[33]
  GI50: 1040 nM
  TGI: 2170 nM
[34]
  GI50: 1210 nM
  TGI: 3010 nM
[35]
  GI50: 899 nM
  TGI: 1940 nM
[36]
  GI50: 839 nM
  TGI: 1670 nM
[37]
  GI50: 908 nM
  TGI: 1650 nM
[38]
  GI50: 860 nM
  TGI: 2850 nM
[39]
  GI50: 841 nM
  TGI: 1580 nM
[40]
  GI50: 994 nM
  TGI: 2230 nM
[41]
  GI50: 1650 nM
  TGI: 7480 nM
[42]
  GI50: 914 nM
  TGI: 1710 nM
[43]
  GI50: 873 nM
  TGI: 1620 nM
[44]
  GI50: 1220 nM
  TGI: 2690 nM
[45]
  GI50: 826 nM
  TGI: 1590 nM
[46]
  GI50: 2210 nM
  TGI: 9750 nM
[47]
  GI50: 847 nM
  TGI: 1580 nM
[48]
  GI50: 1420 nM
  TGI: 3400 nM
[49]
  GI50: 1160 nM
  TGI: 2800 nM
[50]
  GI50: 848 nM
  TGI: 3620 nM
[51]
  GI50: 910 nM
  TGI: 1650 nM
[52]
  GI50: 734 nM
  TGI: 1420 nM
[53]
  GI50: 885 nM
  TGI: 1670 nM
[54]
  GI50: 2560 nM
  TGI: 9230 nM

## Brc1ccc2c(c1)c(-c1nc(-c3c[nH]c4ncccc34)cs1)cn2CCCN1CCCCC1
[2]
  GI50: 1680 nM
  TGI: 3080 nM
[3]
  GI50: 2320 nM
  TGI: 9160 nM
[5]
  GI50: 1860 nM
  TGI: 3490 nM
[6]
  GI50: 1750 nM
  TGI: 3310 nM
[7]
  GI50: 1660 nM
  TGI: 3080 nM
[12]
  GI50: 1790 nM
  TGI: 3390 nM
[19]
  GI50: 1750 nM
  TGI: 3370 nM
[20]
  GI50: 1890 nM
  TGI: 3430 nM
[55]
  GI50: 1620 nM
  TGI: 3110 nM
[23]
  GI50: 1900 nM
  TGI: 3500 nM
[24]
  GI50: 1900 nM
  TGI: 4570 nM
[31]
  GI50: 1890 nM
  TGI: 5010 nM
[34]
  GI50: 1770 nM
  TGI: 3180 nM
[37]
  GI50: 1820 nM
  TGI: 3480 nM
[38]
  GI50: 2240 nM
  TGI: 4880 nM
[40]
  GI50: 2130 nM
  TGI: 5550 nM
[42]
  GI50: 1780 nM
  TGI: 3370 nM
[43]
  GI50: 1820 nM
  TGI: 3410 nM
[50]
  GI50: 1850 nM
  TGI: 4590 nM
[51]
  GI50: 1740 nM
  TGI: 3140 nM
